Source: patent US5260257A, “Thermal transfer sheet” (Dai Nippon Printing Co., Ltd., priority 1991, dated 1993)

Test: light fastness test (xenon fadeometer, percentage fading)
Type: physicochemical
Settings: 70 kJ/m^2
Experimental: The light fastness test was conducted as follows.
Irradiation was conducted by means of a xenon fadeometer Ci35A (manufactured by Atlas) under conditions of a black panel temperature of 50° C. and an integrating irradiation energy of 70 kJ/m^2.
The percentage fading was determined from a density change around an initial density of 1.0 according to the following equation.
Percentage fading=(1-I/I0)×100 (%)
I=optical density after irradiation; and
I0 =optical density before irradiation.
.largecircle.: less than 20% in the percentage fading
X : 20% or more in the percentage fading

[1] = Table A3, Comparative Examples A1-A6, 50° C.
[2] = Table B3, Comparative Examples B1-B6, 50° C.
[3] = Table C (C3), Comparative Examples C1-C6, 50° C.
[4] = Table B2, dyes of Table B1, 50° C.
[5] = Table C2, dyes of Table C1, 50° C.

Row | SMILES | Light fastness [4] | Light fastness [5] | further results
1 | CNc1ccc(NC)c2c1C(=O)c1ccccc1C2=O [Comp. Ex. A1, C.I. Disperse Blue 14, reference compound] |  |  | Light fastness [1]: Δ; Light fastness [2]: Δ; Light fastness [3]: Δ
2 | CC(C)Nc1ccc(NC(C)C)c2c1C(=O)c1ccccc1C2=O [Comp. Ex. A2, C.I. Disperse Blue 134, reference compound] |  |  | Light fastness [1]: Δ; Light fastness [2]: Δ; Light fastness [3]: Δ
3 | CNc1ccc(Nc2cccc(C)c2)c2c1C(=O)c1ccccc1C2=O [Comp. Ex. A3, C.I. Solvent Blue 63, reference compound] |  |  | Light fastness [1]: Δ; Light fastness [2]: Δ; Light fastness [3]: Δ
4 | CNc1ccc(O)c2c1C(=O)c1c(O)ccc(NC)c1C2=O [Comp. Ex. A4, C.I. Disperse Blue 26, reference compound] |  |  | Light fastness [1]: Δ; Light fastness [2]: Δ; Light fastness [3]: Δ
5 | CNc1ccc(N)c2c1C(=O)c1ccccc1C2=O [Comp. Ex. A5, C.I. Disperse Violet 4, reference compound] |  |  | Light fastness [1]: Δ; Light fastness [2]: Δ; Light fastness [3]: Δ
6 | CCN(CC)c1ccc(N=C2C=C(NC(=O)c3ccccc3)C(=O)C(Cl)=C2C)c(C)c1 [Comparative Example A6, reference compound] |  |  | Light fastness [1]: .largecircle. (less than 20% in the percentage fading)
7 | CCN(CC)c1ccc(N=C2C=C(NC(=O)c3ccccc3)C(=O)C(Cl)=C2C)c(C)c1 [Comparative Example B6, reference compound] |  |  | Light fastness [2]: .largecircle. (less than 20% in the percentage fading)
8 | CCN(CC)c1ccc(N=C2C=C(NC(=O)c3ccccc3)C(=O)C(Cl)=C2C)c(C)c1 [Comparative Example C6, reference compound] |  |  | Light fastness [3]: .largecircle. (less than 20% in the percentage fading)
9 | CCN(CC)c1ccc(N=C2C=C(NC(=O)C3CC=CCC3)C(=O)C(Cl)=C2C)c(C)c1 (centres unmarked) [Dye No. 1 in Table B1] | .largecircle. (less than 20% in the percentage fading) |  | 
10 | CCN(CC)c1ccc(N=C2C=C(NC(=O)C3CC4C=CC3C4)C(=O)C(Cl)=C2C)c(C)c1 (centres unmarked) [Dye No. 1 in Table C1] |  | .largecircle. (less than 20% in the percentage fading) | 
11 | CCN(CCO)c1ccc(N=C2C=C(NC(=O)C3CC=CCC3)C(=O)C(Cl)=C2C)c(C)c1 (centres unmarked) [Dye No. 2 in Table B1] | .largecircle. (less than 20% in the percentage fading) |  | 
12 | CCN(CC)c1ccc(N=C2C=CC(=O)C(NC(=O)C3CC4C=CC3C4)=C2)c(C)c1 (centres unmarked) [Dye No. 2 in Table C1] |  | .largecircle. (less than 20% in the percentage fading) | 
13 | CCN(CC)c1ccc(N=C2C=C(NC(=O)C3CC=CCC3)C(=O)C=C2NC(C)=O)c(C)c1 (centres unmarked) [Dye No. 3 in Table B1] | .largecircle. (less than 20% in the percentage fading) |  | 
14 | CCN(CCO)c1ccc(N=C2C=C(NC(=O)C3CC4C=CC3C4)C(=O)C(Cl)=C2C)c(C)c1 (centres unmarked) [Dye No. 3 in Table C1] |  | .largecircle. (less than 20% in the percentage fading) | 
15 | CCOc1cc(N(CC)CC)ccc1N=C1C=CC(=O)C(NC(=O)C2CC=CCC2)=C1 (centres unmarked) [Dye No. 4 in Table B1] | .largecircle. (less than 20% in the percentage fading) |  | 
16 | CCN(CC)c1ccc(N=C2C=C(NC(=O)C3CC4C=CC3C4)C(=O)C=C2NC(C)=O)c(C)c1 (centres unmarked) [Dye No. 4 in Table C1] |  | .largecircle. (less than 20% in the percentage fading) | 
17 | CCC1=C(Cl)C(=O)C(NC(=O)C2CC=CCC2)=CC1=Nc1ccc(N(CC)CC)cc1C (centres unmarked) [Dye No. 5 in Table B1] | .largecircle. (less than 20% in the percentage fading) |  | 
18 | CCOc1cc(N(CC)CC)ccc1N=C1C=CC(=O)C(NC(=O)C2CC3C=CC2C3)=C1 (centres unmarked) [Dye No. 5 in Table C1] |  | .largecircle. (less than 20% in the percentage fading) | 
19 | CCN(CC)c1ccc(N=C2C=C(NC(=O)C3CC=CCC3)C(=O)C(Cl)=C2C)c(NC(C)=O)c1 (centres unmarked) [Dye No. 6 in Table B1] | .largecircle. (less than 20% in the percentage fading) |  | 
20 | CCN(CC)c1ccc(N=C2C=C(NC(=O)C3CC4C=CC3C4)C(=O)C(Cl)=C2C)cc1 (centres unmarked) [Dye No. 6 in Table C1] |  | .largecircle. (less than 20% in the percentage fading) | 
21 | CCN(CCCl)c1ccc(N=C2C=C(NC(=O)C3CC=CCC3)C(=O)C(Cl)=C2C)c(NC(=O)NC)c1 (centres unmarked) [Dye No. 7 in Table B1] | .largecircle. (less than 20% in the percentage fading) |  | 
22 | CCC1=C(Cl)C(=O)C(NC(=O)C2CC3C=CC2C3)=CC1=Nc1ccc(N(CC)CC)cc1C (centres unmarked) [Dye No. 7 in Table C1] |  | .largecircle. (less than 20% in the percentage fading) | 
23 | CCOc1cc(N(CC)CC)ccc1N=C1C=CC(=O)C(NC(=O)C2C=CCCC2)=C1 (centres unmarked) [Dye No. 8 in Table B1] | .largecircle. (less than 20% in the percentage fading) |  | 

Row | SMILES | Light fastness [4] | Light fastness [5] | further results
24 | CCN(CC)c1ccc(N=C2C=C(NC(=O)C3CC4C=CC3C4)C(=O)C(Cl)=C2C)c(NC(C)=O)c1 (centres unmarked) [Dye No. 8 in Table C1] |  | .largecircle. (less than 20% in the percentage fading) | 
25 | CCOc1cc(N(CC)CCO)ccc1N=C1C=C(NC(=O)C2=CCCCC2)C(=O)C=C1NC(C)=O [Dye No. 9 in Table B1] | .largecircle. (less than 20% in the percentage fading) |  | 
26 | CCN(CCCl)c1ccc(N=C2C=C(NC(=O)C3CC4C=CC3C4)C(=O)C(Cl)=C2C)c(NC(=O)NC)c1 (centres unmarked) [Dye No. 9 in Table C1] |  | .largecircle. (less than 20% in the percentage fading) | 
27 | CCN(CC)c1ccc(N=C2C=C(NC(=O)C3=CCC=CC3)C(=O)C(Cl)=C2C)c(C)c1 [Dye No. 10 in Table B1] | .largecircle. (less than 20% in the percentage fading) |  | 
28 | CCOc1cc(N(CC)CCO)ccc1N=C1C=C(NC(=O)C2CC3C=CC2C3)C(=O)C=C1NC(C)=O (centres unmarked) [Dye No. 10 in Table C1] |  | .largecircle. (less than 20% in the percentage fading) | 
29 | CCN(CC)c1ccc(N=C2C=CC(=O)C(NC(=O)C3C=CCC=C3)=C2)c(NC(C)=O)c1 [Dye No. 11 in Table B1] | .largecircle. (less than 20% in the percentage fading) |  | 
30 | CCN(CC)c1ccc(N=C2C=C(NC(=O)C3=CC4C=CC3C4)C(=O)C(Cl)=C2C)c(C)c1 (centres unmarked) [Dye No. 11 in Table C1] |  | .largecircle. (less than 20% in the percentage fading) | 
31 | CCN(CC)c1ccc(N=C2C=CC(=O)C(NC(=O)C3=CC4C=CC3C4)=C2)c(NC(C)=O)c1 (centres unmarked) [Dye No. 12 in Table C1] |  | .largecircle. (less than 20% in the percentage fading) | 
32 | CCN(CCC#N)c1ccc(N=C2C=C(NC(=O)C3CC=CC3)C(=O)C(Cl)=C2C)c(NS(C)(=O)=O)c1 [Dye No. 13 in Table B1] | .largecircle. (less than 20% in the percentage fading) |  | 
33 | CCN(Cc1ccccc1)c1ccc(N=C2C=C(NC(=O)C3=CC4C=CC3C4)C(=O)C=C2NC(C)=O)cc1 (centres unmarked) [Dye No. 13 in Table C1] |  | .largecircle. (less than 20% in the percentage fading) | 
34 | CCN(CCNS(C)(=O)=O)c1ccc(N=C2C=C(NC(=O)C3CC=CC3)C(=O)C=C2NS(C)(=O)=O)c(C)c1 [Dye No. 14 in Table B1] | .largecircle. (less than 20% in the percentage fading) |  | 
35 | CCN(CCC#N)c1ccc(N=C2C=C(NC(=O)C3=CC4C=CC3C4)C(=O)C(Cl)=C2C)c(NS(C)(=O)=O)c1 (centres unmarked) [Dye No. 14 in Table C1] |  | .largecircle. (less than 20% in the percentage fading) | 
36 | CCN(c1ccccc1)c1ccc(N=C2C=C(NC(=O)C3CC=CC3)C(=O)C=C2NC(=O)NC)c(Cl)c1 [Dye No. 15 in Table B1] | .largecircle. (less than 20% in the percentage fading) |  | 
37 | CCN(c1ccccc1)c1ccc(N=C2C=C(NC(=O)C3=CC4C=CC3C4)C(=O)C=C2NC(=O)NC)c(Cl)c1 (centres unmarked) [Dye No. 15 in Table C1] |  | .largecircle. (less than 20% in the percentage fading) | 
38 | CCN(c1ccccc1)c1ccc(N=C2C=C(NC(=O)C3=CCCC3)C(=O)C=C2NC(=O)NC)c(Cl)c1 [Dye No. 17 in Table B1] | .largecircle. (less than 20% in the percentage fading) |  | 
39 | CCOCCN(CC)c1ccc(N=C2C=C(NC(=O)C3CC4CCC3C4)C(=O)C(Cl)=C2C)c(C)c1 (centres unmarked) [Dye No. 17 in Table C1] |  | .largecircle. (less than 20% in the percentage fading) | 
40 | CCN(CC)c1ccc(N=C2C=C(NC(=O)C3=CCC=CC3)C(=O)C(Cl)=C2C)cc1 [Dye No. 18 in Table B1] | .largecircle. (less than 20% in the percentage fading) |  | 
41 | CCN(CC)c1ccc(N=C2C=C(NC(=O)C3CC4C=C(C)C3C4)C(=O)C(Cl)=C2C)c(C)c1 (centres unmarked) [Dye No. 18 in Table C1] |  | .largecircle. (less than 20% in the percentage fading) | 
42 | CCN(CCOC)c1ccc(N=C2C=C(NC(=O)C3=CCC=CC3)C(=O)C=C2NC(C)=O)c(NC(C)=O)c1 [Dye No. 19 in Table B1] | .largecircle. (less than 20% in the percentage fading) |  | 
43 | CCOc1cc(N(CC)CC)c(OCC)cc1N=C1C=C(NC(=O)C2CC3C=C(C)C2C3)C(=O)C(Cl)=C1C (centres unmarked) [Dye No. 19 in Table C1] |  | .largecircle. (less than 20% in the percentage fading) | 
44 | CCN(CC)c1ccc(N=C2C=C(NC(=O)C3=CCC=CC3)C(=O)C=C2NC(C)=O)c(C)c1 [Dye No. 20 in Table B1] | .largecircle. (less than 20% in the percentage fading) |  | 
45 | CCN(CC)c1ccc(N=C2C=C(NC(=O)C3CC4C=C(C)C3C4)C(=O)C=C2NC(C)=O)c(C)c1 (centres unmarked) [Dye No. 20 in Table C1] |  | .largecircle. (less than 20% in the percentage fading) | 
46 | CCN(CCO)c1ccc(N=C2C=C(NC(=O)C3=CCC=CC3)C(=O)C(Cl)=C2C)c(C)c1 [Dye No. 21 in Table B1] | .largecircle. (less than 20% in the percentage fading) |  | 
